Measurements as given in publication PMC11490426, “Structure-activity relationship of amino acid analogs to probe the binding pocket of sodium-coupled neutral amino acid transporter SNAT2” (Amino Acids, 2024).
Where a name gives a salt, the structure may show the parent alone.

Legend:
SNAT2 [1] = target: T1, SNAT2 (Homo sapiens, UniProt Q96QD8); assay: Inhibition of SNAT2-mediated 3H-glycine uptake in hyperosmotically treated PC-3 cells; format: cell-based
T1 construct: hyperosmotically treated PC-3 cells, known to upregulate SNAT2; endogenous in cells; host or cells: PC-3 prostate cells exposed to hyperosmotic medium for 24 h
T1 sequence (Q96QD8 1-506): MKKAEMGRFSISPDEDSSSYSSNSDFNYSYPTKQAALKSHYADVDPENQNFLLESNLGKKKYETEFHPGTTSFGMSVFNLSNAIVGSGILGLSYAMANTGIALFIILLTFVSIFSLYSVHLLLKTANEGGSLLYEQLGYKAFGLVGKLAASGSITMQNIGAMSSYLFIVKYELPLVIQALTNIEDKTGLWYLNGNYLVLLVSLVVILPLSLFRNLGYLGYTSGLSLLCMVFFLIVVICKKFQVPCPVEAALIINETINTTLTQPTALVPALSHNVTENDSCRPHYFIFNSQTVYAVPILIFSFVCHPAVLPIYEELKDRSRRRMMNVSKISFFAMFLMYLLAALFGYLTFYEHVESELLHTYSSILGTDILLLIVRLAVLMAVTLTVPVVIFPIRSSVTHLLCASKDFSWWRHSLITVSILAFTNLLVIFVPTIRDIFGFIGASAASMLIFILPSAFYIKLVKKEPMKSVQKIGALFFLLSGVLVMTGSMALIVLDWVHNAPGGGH
Description: Where Y is the % uptake, X is the concentration of the inhibitor, Top and Bottom are the top and bottom plateau respectively, and IC50 is the half maximal inhibitory concentration. These studies were performed in at least 3 independent cell passages (n = 3) and a curve was defined for each independent passage. However, for each compound, the top and bottom were constrained to be the same amongst the different cell passages.

SNAT2 [2] = target: T1, SNAT2; assay: FLIPR membrane potential (FMP) assay in PC-3 cells; format: cell-based; conditions: hyperosmotically treated PC-3 cells
Description: PC-3 cells exposed to hyperosmotic media for 24 h were used to identify SNAT2 substrates in the FMP assay. The media was aspirated, and the cells were preincubated in HBSS + for 10 min at 37 °C and 220 rpm. Then the buffer was aspirated, and cells were then incubated in 50 µL HBSS + containing 0.55 mg ⋅ mL^− 1 (1x) FMP probe (Blue component A from Molecular Devices, San Jose, CA, USA) for 30 min at 37 °C and 220 rpm. […] First, the baseline was measured for 30 s by measuring each well every 3 s. The plate was then removed from the reader and 50 µL of substrate solutions containing 0.55 mg ⋅ mL^− 1 FMP probe was added. These solutions were prepared by mixing equal parts solution containing 2x FMP probe and solutions containing 4x the final concentration of substrate. […] Following this, the baseline of the next column was measured and followed the same procedure as just described.
For the FMP data, the baseline was defined as the mean fluorescence of the first data point before substrate addition. The baseline of each well was then subtracted from the data point to get the ΔF. Plotting ΔF as a function of time and calculating the area under the curve (AUC) after substrate addition was used as a measure of SNAT2 activity.

SNAT2 [3] = target: T1, SNAT2; assay: Intracellular amino acids and analogs quantified by OPA derivatization and HPLC-Fl after uptake in PC-3 cells; format: cell-based; conditions: 0.4 mM compound, 30 min uptake, pH 7.4
Description: Derivatization of AAs and analogs using o-phthalaldehyde (OPA) and 2-mercaptoethanol (2-ME) to make fluorescent derivatives was used to measure the intracellular amounts of AAs and analogs following uptake in hyperosmotically treated PC-3 cells. Before starting the experiment, the medium was aspirated, and the cells were preincubated in HBSS + for 15 min at 37 °C and 220 rpm. The cells were then incubated with 500 µL HBSS+ (background) or HBSS + containing AAs or analogs at given concentrations for 30 min at 37 °C and 220 rpm. After aspirating the donor solutions, the cells were washed thrice with 500 µL of ice-cold PBS while keeping the cells on ice. 200 µL of ice-cold 1x-trypsin was added to each well and allowed to distribute for 20–30 min while keeping the cells on ice. The plate was then transferred to an incubating microplate shaker at 37 °C and 220 rpm for about 8 min or until the cells had detached. 300 µL of ice-cold PBS was added to each well to resuspend the cells and transfer them to centrifuge tubes. The cells were centrifuged at 1000 G for 5 min (4 °C), the supernatant was removed, the cells were resuspended in 300 µL ice-cold PBS, and then centrifuged again at 1000 G for 5 min (4 °C). After removing the supernatant, the cell pellet was lysed by adding 100 µL of 80% methanol (20% ultrapure water) and placing the tubes in an ultrasonic bath for 10 min. The tubes were then centrifuged at 15,000 G for 15 min (4 °C) and the resulting supernatant was used for analysis.
The OPA reagent was prepared by spiking with 2 µL 2-ME per mL of OPA regent and was considered stable for use within one day. 10 µL of the cell samples or standards containing a mixture of the AAs and analogs of interest were placed in HPLC vials with 100 µL inserts. […] The autosampler kept the samples at 10 °C and the pretreatment function was used to automatically mix the samples with 10 µL of the OPA reagent and wait 4 min before loading 2 µL onto a YMC-Triart C18 column (75 × 3.0 mm, 1.9 μm, Mikrolab Aarhus, Viby J, Denmark). […] The fluorescence detector was set to excite at 350 nm and detect at 450 nm.
The resulting chromatograms were integrated and the area under the curve (AUC) of the standard samples was used to generate standard curves to determine the concentration of AAs and analogs in the cell samples. […] Amino acid levels detected in the background cell samples were subtracted from the other cell samples.

PC-3 cells = assay: CellTiter-Glo viability assay; format: cell-based, human; conditions: 20 mM, after 10 min of exposure, hyperosmotically treated PC-3 cells
Description: ^3H-glycine uptake in hyperosmotically treated PC-3 cells was performed as previously described (Jakobsen et al. [2023]). 5-minute uptake of 0.5 µCi ⋅ mL^− 1 3H-glycine (11.1 nM) was used, and each uptake was normalized to the uptake obtained in a control situation (31.2 ± 5.7 fmol ⋅ cm^− 2 ⋅ min^− 1) without subtracting the background uptake (2.62 ± 0.67 fmol ⋅ cm^− 2 ⋅ min^− 1). Compounds that inhibited uptake by more than 20% at the highest tested concentrations were tested in the CellTiter-Glo viability assay (Promega, Madison, WI, USA), to rule out that the observed inhibition was not caused by reduced cell viability (Fig. S1 in Supplementary Information SI).
Fig. S1 Cell viability of hyperosmotically treated PC-3 cells after 10 min incubation with various amino acids and analogs using the CellTiter-Glo assay. […] The plate was placed in a CLARIOstar® Plus plate reader from BMG LABTECH (Ortenberg, Germany) at room temperature and was then shaken for 2 minutes at 220 rpm. Luminescence was measured after 0, 5, 10, and 15 minutes. Background luminescence (obtained from adding CellTiter-Glo reagent to HBSS+ containing wells without cells) was subtracted from the sample luminescence and normalized to control wells only exposed to HBSS+ to determine the % viability. […] Statistically significant differences from the control detected by one-way ANOVA are shown (*: p < 0.05).

[4] = Stability in aqueous solution by HPLC-UV; format: physicochemical; conditions: 1 mM in ultrapure water, room temperature, over 3 days
From the text: The resulting chromatograms were integrated and the area under the curve (AUC) of the standard samples was used to generate standard curves to determine the concentration of AAs and analogs in the cell samples. The pooled standard curves and example chromatograms can be seen in the SI (Figs. S2, S3). Amino acid levels detected in the background cell samples were subtracted from the other cell samples. L-Alanine benzyl ester only generated a peak with an equal retention time as L-alanine. It was assessed that the addition of OPA reagent increased the hydrolysis of the ester, thus only creating the L-alanine OPA derivative. […] Thus, the L-alanine peak was used to measure the presence of L-alanine benzyl ester in samples.
Fig. S4 HPLC-UV chromatograms of L-alanine benzyl ester and benzyl alcohol dissolved in ultrapure water. The samples were analyzed using a Waters 2695 HPLC system connected to a Waters 2487 Dual λ Absorbance Detector (Waters Corporation, MA, USA). The peaks were separated using a Sunfire C18 column (4.6 x 150 mm, 3.5 µm, Waters Corporation, MA, USA) at 45 °C and with a 0.7 ml/min flow of 70% mobile phase A (90/10% H2O/MeCN + 0.1% trifluoroacetic acid (TFA)) and 30% mobile phase B (10/90% H2O/MeCN + 0.1% TFA). 10 µL samples were injected and the peaks were detected at 254 nm. […]

C[C@H](N)C(=O)OCc1ccccc1 [L-Alanine benzyl ester, L-alanine benzyl ester hydrochloride]
IC50 (SNAT2 [1]; hyperosmotically treated PC-3 cells, 5 min uptake of 11.1 nM 3H-glycine, pH 7.4, read-out: IC50): 390 µM
inhibition of 3H-glycine uptake at different pH levels (SNAT2 [1]; pH 6.8, 7.4 and 8.0, 0.4 mM L-alanine benzyl ester or 0.2 mM L-alanine, two-way ANOVA): no significant differences in inhibition at the different pH levels
AUC of fluorescence response-time curve (SNAT2 [2]; 5 mM compound): 8.1 ± 1.4 10^5 RFU ∙ s
AUC of fluorescence response-time curve (SNAT2 [2]; 10 mM compound): -1.4 ± 3.2 10^5 RFU ∙ s
AUC, % of 10 mM L-alanine (SNAT2 [2]; 10 mM compound): -6.6 ± 14%
response in the FMP assay (stimulation of SNAT2 activity) (SNAT2 [2]; result in words): little or no stimulation of SNAT2 activity
fold change of intracellular accumulation in absence vs presence of 10 mM L-glutamine (SNAT2 [3]): 6.7 fold
decrease in cell viability (PC-3 cells): 23%
stability in aqueous solution [4]: stability was confirmed
